Test [1] deals with T1, hNET (Homo sapiens, UniProt P23975). In words: hNET neurotransmitter uptake assay (3H-NE), Assay 2. Type of test: cell-based. Details: expressed in transfected cells; host or cells: HEK-293. The conditions noted are these: norepinephrine reuptake inhibition, 3H-NE uptake, HEK-293 hNET cells (values without asterisk); read-out: NET pIC50 (converted). The procedure:
(§1) Cells were harvested by centrifugation at 1100 rpm for 5 minutes, washed once by resuspension in PBS, then centrifuged. The supernatant was discarded and the cell pellet resuspended, by gentle trituration, in room temperature Krebs-Ringer bicarbonate buffer containing HEPES (10 mM), CaCl2 (2.2 mM), ascorbic acid (200 μM) and pargyline (200 μM), pH 7.4.
(§2) Test compounds were incubated for 30 minutes at 37° C. with the respective cells, prior to addition of radiolabeled neurotransmitter, ^3H-5-HT (20 nM final concentration), ^3H-NE (50 nM final concentration) or ^3H-DA (100 nM final concentration).

In test [2] the target is T1, hNET. In words: hNET membrane radioligand binding assay (3H-nisoxetine), Assay 1.
Test [3] deals with T2, hSERT (Homo sapiens, UniProt P31645). In words: hSERT membrane radioligand binding assay (3H-citalopram), Assay 1. To be noted: SERT pKi, hSERT HEK-293 membranes, 1.0 nM 3H-citalopram; values given as lower bounds.
The target of test [4] is T2, hSERT. In words: hSERT neurotransmitter uptake assay (3H-5-HT), Assay 2. In kind it is cell-based. On the set-up: expressed in transfected cells; host or cells: HEK-293. To be noted: serotonin reuptake inhibition, 3H-5-HT uptake, HEK-293 hSERT cells (values without asterisk); read-out: SERT pIC50 (converted). The procedure:
as §1, §2

The source of these data is patent US7994209B2, “3-phenoxymethylpyrrolidine compounds” (Theravance, Inc., priority 2009, dated 2011).

As usually defined, the Ki is the equilibrium dissociation constant of an inhibitor or competing ligand from its target. Higher therefore signals a looser hold on the target.

T2 sequence (P31645 whole entry): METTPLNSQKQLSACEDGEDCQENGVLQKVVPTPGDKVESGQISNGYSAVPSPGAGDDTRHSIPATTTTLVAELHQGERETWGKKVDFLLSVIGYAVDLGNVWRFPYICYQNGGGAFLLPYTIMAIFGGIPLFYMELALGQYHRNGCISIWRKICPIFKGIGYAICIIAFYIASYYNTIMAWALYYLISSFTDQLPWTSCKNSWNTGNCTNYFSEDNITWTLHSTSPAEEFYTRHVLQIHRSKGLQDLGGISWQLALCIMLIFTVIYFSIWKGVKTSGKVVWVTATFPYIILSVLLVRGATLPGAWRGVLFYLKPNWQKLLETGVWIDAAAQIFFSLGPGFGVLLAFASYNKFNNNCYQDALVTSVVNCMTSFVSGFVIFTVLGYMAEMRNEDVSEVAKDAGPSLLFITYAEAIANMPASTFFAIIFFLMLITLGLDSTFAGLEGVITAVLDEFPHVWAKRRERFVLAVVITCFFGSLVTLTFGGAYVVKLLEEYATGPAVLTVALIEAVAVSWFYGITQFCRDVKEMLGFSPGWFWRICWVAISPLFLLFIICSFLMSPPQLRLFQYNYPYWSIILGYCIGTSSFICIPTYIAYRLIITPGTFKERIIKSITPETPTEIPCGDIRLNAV
T1 sequence (P23975 whole entry): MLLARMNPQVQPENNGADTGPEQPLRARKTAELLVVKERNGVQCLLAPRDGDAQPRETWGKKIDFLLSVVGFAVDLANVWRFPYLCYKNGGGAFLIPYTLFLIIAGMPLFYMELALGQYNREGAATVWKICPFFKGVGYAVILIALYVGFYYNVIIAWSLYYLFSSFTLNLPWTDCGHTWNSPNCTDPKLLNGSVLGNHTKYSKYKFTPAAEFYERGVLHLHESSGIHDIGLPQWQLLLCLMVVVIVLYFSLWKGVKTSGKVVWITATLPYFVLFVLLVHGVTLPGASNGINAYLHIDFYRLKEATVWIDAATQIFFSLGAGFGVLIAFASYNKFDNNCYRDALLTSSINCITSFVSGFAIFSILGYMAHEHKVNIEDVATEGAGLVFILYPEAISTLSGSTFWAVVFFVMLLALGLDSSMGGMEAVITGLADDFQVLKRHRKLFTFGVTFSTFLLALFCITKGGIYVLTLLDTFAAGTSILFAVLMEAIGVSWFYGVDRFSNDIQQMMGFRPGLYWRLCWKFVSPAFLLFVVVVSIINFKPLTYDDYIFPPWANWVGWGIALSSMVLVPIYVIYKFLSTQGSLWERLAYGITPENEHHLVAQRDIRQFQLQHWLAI

Turning to `CCC[C@H](Oc1ccc(Cl)cc1)[C@H]1CCNC1` [Example 4-1, (S)-3-[(S)-1-(4-Chlorophenoxy)butyl]pyrrolidine], the IC50 in test [1] and in test [4] was no more than 10 nM in each case. Besides, the Ki in test [2] and in test [3] was no more than 10 nM in each case.
For the compound `CC(C)C[C@@H](Oc1cccc(F)c1Cl)[C@H]1CCNC1` [Example 10-27, (S)-3-[(R)-1-(2-Chloro-3-fluorophenoxy)-3-methylbutyl]pyrrolidine], the IC50 in test [1] and in test [4] was no more than 10 nM in each case. In addition, the inhibition constant (Ki) in test [2] and in test [3] was no more than 10 nM in each case.
Turning to `CC(C)CC(Oc1ccc(Cl)cc1C(F)(F)F)C1CCNC1` (stereo not shown) [Example 10-48, 3-[1-(4-Chloro-2-trifluoromethylphenoxy)-3-methylbutyl]pyrrolidine], the IC50 in test [1] and in test [4] was no more than 10 nM in each case. In addition, the Ki in test [2] and in test [3] was no more than 10 nM throughout.
Consider `Clc1cc(Cl)cc(O[C@H](C2CC2)[C@H]2CCNC2)c1` [Example 16-97, (S)-3-[(R)cyclopropyl-(3,5-dichlorophenoxy)methyl]pyrrolidine], for which the IC50 in test [1] and in test [4] was no more than 10 nM in each case. For the same compound, the inhibition constant (Ki) in test [2] and in test [3] was no more than 10 nM in each case.
As for `CC(C)[C@@H](Oc1cccc(F)c1Cl)[C@H]1CCNC1` [Example 6-19, (S)-3-[(R)-1-(2-Chloro-3-fluorophenoxy)-2-methylpropyl]pyrrolidine], the results for the IC50 in test [1] and in test [4] were no more than 100 nM and no more than 10 nM, respectively. Besides, the Ki in test [2] was no more than 100 nM; in test [3], no more than 10 nM.
Take `CC[C@@H](Oc1ccc(Cl)cc1C)[C@@H]1CCNC1` [Example 2-60, (R)-3-[(R)-1-(4-Chloro-2-methylphenoxy)propyl]pyrrolidine]: the IC50 in test [1] and in test [4] was no more than 100 nM in each case. The Ki in test [2] is no more than 100 nM; in test [3], no more than 10 nM.
For the compound `Cc1ccc(O[C@@H](C2CC2)[C@H]2CCNC2)c(C)c1` [Example 16-28, (S)-3-[(S)cyclopropyl-(2,4-dimethylphenoxy)-methyl]pyrrolidine], the IC50 in test [1] and in test [4] was no more than 10 nM in each case. For the same compound, the Ki in test [2] and in test [3] was no more than 10 nM throughout.
Regarding `Clc1ccc(Cl)c(O[C@@H](C2CC2)[C@H]2CCNC2)c1Cl` [Example 16-58, (S)-3-[(S)cyclopropyl-(2,3,6-trichlorophenoxy)methyl]pyrrolidine], the IC50 was no more than 10 nM in test [1] and no more than 100 nM in test [4]. The Ki in test [2] and in test [3] was no more than 10 nM throughout.
As to `CC(C)C[C@H](Oc1ccccc1F)[C@H]1CCNC1` [Example 10-1, (S)-3-[(S)-1-(2-Fluorophenoxy)-3-methylbutyl]pyrrolidine], the IC50 in test [1] was no more than 10 nM; in test [4], no more than 100 nM. In addition, the inhibition constant (Ki) in test [2] and in test [3] was no more than 10 nM in each case.
Take `Fc1ccc(O[C@@H](C2CC2)[C@H]2CCNC2)cc1Cl` [Example 16-89, (S)-3-[(S)-(3-Chloro-4-fluorophenoxy)cyclopropylmethyl]pyrrolidine]: the IC50 in test [1] and in test [4] was no more than 100 nM in each case. Further, the Ki in test [2] and in test [3] was no more than 10 nM each time.
Take `CC(C)C(Oc1ccccc1Cl)C1CCNC1` (stereo not shown) [Example 6-11, 3-[1-(2-Chlorophenoxy)-2-methylpropyl]pyrrolidine]: the IC50 was no more than 10 nM in test [1] and no more than 100 nM in test [4]. Besides, the inhibition constant Ki in test [2] and in test [3] was no more than 10 nM each time.
On to `CCCC[C@@H](Oc1ccc(F)cc1)[C@H]1CCNC1` [Example 8-3, (S)-3-[(R)-1-(4-Fluorophenoxy)pentyl]pyrrolidine], for which the IC50 in test [1] and in test [4] was no more than 100 nM throughout. Moreover, the inhibitory constant (Ki) in test [2] and in test [3] was no more than 10 nM in each case.
On to `Clc1cccc(O[C@@H](C2CC2)[C@H]2CCNC2)c1Cl` [Example 16-8, (S)-3-[(S)cyclopropyl-(2,3-dichlorophenoxy)methyl]pyrrolidine], for which the IC50 in test [1] and in test [4] was no more than 10 nM in each case. For the same compound, the Ki in test [2] and in test [3] was no more than 10 nM in each case.
As for `CC(C)CC(Oc1ccc(Cl)c(F)c1)C1CCNC1` (stereo not shown) [Example 10-70, 3-[1-(4-Chloro-3-fluorophenoxy)-3-methylbutyl]pyrrolidine], the IC50 in test [1] and in test [4] was no more than 10 nM in each case. Further, the inhibition constant (Ki) in test [2] and in test [3] was no more than 10 nM throughout.
On to `CCc1cc(F)ccc1O[C@@H](CC)[C@H]1CCNC1` [Example 2-66, (S)-3-[(S)-1-(2-Ethyl-4-fluorophenoxy)propyl]pyrrolidine], for which the IC50 in test [1] and in test [4] was no more than 10 nM in each case. In addition, the Ki in test [2] and in test [3] was no more than 10 nM throughout.
Take `Cc1c(Cl)cccc1O[C@H](CC(C)C)[C@H]1CCNC1` [Example 10-31, (S)-3-[(R)-1-(3-Chloro-2-methylphenoxy)-3-methylbutyl]pyrrolidine]: the IC50 in test [1] and in test [4] was no more than 10 nM in each case. Besides, the Ki in test [2] and in test [3] was no more than 10 nM throughout.
For the compound `CC[C@H](Oc1cccc(Cl)c1)[C@H]1CCNC1` [Example 2-1, (S)-3-[(S)-1-(3-Chlorophenoxy)propyl]pyrrolidine], the figures for the IC50 in test [1] and in test [4] were no more than 10 nM and no more than 100 nM, respectively. Further, the Ki is no more than 10 nM in test [2] and no more than 100 nM in test [3].
On to `CC(C)CC(Oc1ccc(Cl)cc1)C1CCNC1` (stereo not shown) [Example 10-10, 3-[1-(4-Chlorophenoxy)-3-methylbutyl]pyrrolidine], for which the IC50 in test [1] and in test [4] was no more than 10 nM each time. In addition, the inhibition constant (Ki) in test [2] and in test [3] was no more than 10 nM each time.
Consider `CCCC[C@@H](Oc1c(Cl)cccc1Cl)[C@H]1CCNC1` [Example 8-12, (S)-3-[(R)-1-(2,6-Dichlorophenoxy)pentyl]pyrrolidine], for which the IC50 in test [1] was no more than 10 nM; in test [4], no more than 100 nM. The inhibitory constant (Ki) in test [2] and in test [3] was no more than 10 nM each time.
Take `Fc1cc(Cl)cc(O[C@H](C2CC2)[C@H]2CCNC2)c1` [Example 16-99, (S)-3-[(R)-(3-Chloro-5-fluorophenoxy)cyclopropylmethyl]pyrrolidine]: the IC50 in test [1] was no more than 10 nM; in test [4], no more than 100 nM. In addition, the Ki in test [2] and in test [3] was no more than 10 nM in each case.
On to `CC(C)[C@H](Oc1cccc(Cl)c1Cl)[C@H]1CCNC1` [Example 6-12, (S)-3-[(S)-1-(2,3-Dichlorophenoxy)-2-methylpropyl]pyrrolidine], for which the IC50 in test [1] and in test [4] was no more than 10 nM throughout. The Ki in test [2] and in test [3] was no more than 10 nM in each case.
Turning to `CC[C@H](Oc1cccc(Cl)c1Cl)[C@H]1CCNC1` [Example 2-28, (S)-3-[(S)-1-(2,3-Dichlorophenoxy)propyl]pyrrolidine], the IC50 in test [1] and in test [4] was no more than 10 nM each time. In addition, the Ki in test [2] and in test [3] was no more than 10 nM in each case.
In the case of `CC(C)[C@@H](Oc1cccc(Cl)c1Cl)[C@@H]1CCNC1` [Example 6-15, (R)-3-[(R)-1-(2,3-Dichlorophenoxy)-2-methylpropyl]pyrrolidine], the IC50 in test [1] and in test [4] was no more than 10 nM in each case. Further, the inhibition constant Ki in test [2] and in test [3] was no more than 10 nM each time.
With `CC(C)C(Oc1ccc(Cl)cc1C(F)(F)F)C1CCNC1` (stereo not shown) [Example 6-50, 3-[1-(4-Chloro-2-trifluoromethylphenoxy)-2-methylpropyl]pyrrolidine], the IC50 in test [1] is no more than 10 nM; in test [4], no more than 100 nM. In addition, the inhibitory constant (Ki) in test [2] and in test [3] was no more than 10 nM each time.
As to `CCC[C@H](Oc1ccc(Cl)cc1Cl)[C@H]1CCNC1` [Example 4-28, (S)-3-[(S)-1-(2,4-Dichlorophenoxy)butyl]pyrrolidine], the IC50 in test [1] and in test [4] was no more than 10 nM each time. The Ki in test [2] and in test [3] was no more than 10 nM each time.
Consider `CC(C)C[C@H](Oc1ccc(F)cc1)[C@H]1CCNC1` [Example 10-8, (S)-3-[(S)-1-(4-Fluorophenoxy)-3-methylbutyl]pyrrolidine], for which the figures for the IC50 in test [1] and in test [4] were no more than 10 nM and no more than 100 nM, respectively. Moreover, the Ki in test [2] and in test [3] was no more than 10 nM in each case.
As for `CCCC[C@@H](Oc1cc(Cl)cc(Cl)c1)[C@H]1CCNC1` [Example 8-13, (S)-3-[(R)-1-(3,5-Dichlorophenoxy)pentyl]pyrrolidine], the IC50 in test [1] and in test [4] was no more than 10 nM in each case. For the same compound, the Ki in test [2] and in test [3] was no more than 10 nM each time.
For the compound `CC(C)C(Oc1cccc(F)c1Cl)C1CCNC1` (stereo not shown) [Example 6-18, 3-[1-(2-Chloro-3-fluorophenoxy)-2-methylpropyl]pyrrolidine], the IC50 in test [1] is no more than 10 nM; in test [4] it was no more than 100 nM. The Ki in test [2] and in test [3] was no more than 10 nM throughout.
